Data taken from PubChem BioAssay AID2060491 (Molecular Pharmacology Branch, DTP, NCI, 2025).
“And” between values parts separate entries of the source, which are not always exact repeats. Equal entries are not always repeated.

Test system: 857933-349-R-J2-PDC complex spheroids, viability
Assay: Anticancer human tumor 857933-349-R-J2-PDC patient-derived colon adenocarcinoma cell line growth inhibition [GQUAD]
Details: for viability, T/C: stronger effect = lower value
Excerpt: DNA G-quadruplex Stabilizer Agents in Combinations in Complex Spheroids
A high-throughput screen of multi-cell type tumor spheroids was designed to identify active combinations of DNA G-quadruplex stabilizer agents and targeted small molecules. Complex spheroids include a stromal component modeled by human endothelial cells (HUVEC) and fibroblasts modeled by human mesenchymal stem cells (MSCs). The concentration ranges selected for each drug and investigational agent were based upon clinically achievable concentrations if the clinical Cmax of the agent was known.
Compounds. The drugs and investigational agents: pidnarulex (CX-5461; NSC782164), APTO-253 (NSC789042), BRACO-19 (NSC847499), peposertib (NSC802822), ceralasertib (NSC780249), elimusertib (NSC800525), camonsertib (NSC841442), AZD-1390 (NSC803789), olaparib (NSC753686), talazoparib (NSC767125), ART-558 (NSC835418), sotorasib (NSC818433), MRTX-1133 (NSC836407), SN-38 (NSC673596), topotecan (NSC609699), etoposide (NSC141540), doxorubicin (NSC123127), gemcitabine (NSC613327), 5-fluorouracil (NSC19893), paclitaxel (NSC125973), vemurafenib (NSC761431), panobinostat (NSC761190), R-306465 (JNJ-16241199; NSC773264), adavosertib (NSC754352), TP-3654 (NSC805149), carboplatin (NSC241240), KSQ-4279 (NSC840948), and staurosporine (NSC755774) were obtained from the National Cancer Institute (NCI) Developmental Therapeutics Program Chemical Repository (34). The FDA-approved anticancer drug set is available from the NCI Developmental Therapeutics Program. […] The stock solutions were prepared in dimethyl sulfoxide (DMSO, Sigma-Aldrich, St. Louis, MO, cat. D2650) at 800-fold the tested concentration and stored at -70 degrees C prior to their use. All drugs and investigational agents were tested over a range starting from a high concentration at or near the clinical Cmax and decreasing in half-log increments. If the clinical Cmax for an agent had not been determined, the highest concentration tested was 10 microM.
2.3 Cell Culture. All cells were maintained in an incubator at 37 degrees C and 5% CO2 with 95% humidity. The PDC lines were cultured according to standard operating procedures established by the NCI PDMR. All PDCs were thawed and cultured in Matrigel-coated flasks prepared with a working solution of 1X Ham's F-12 nutrient mix, without supplementation (Invitrogen, cat. 11765054), 100 U/mL penicillin-streptomycin (Invitrogen, cat. 15140122), and 2.5% Matrigel (Corning Inc., cat. 354248) for the first three passages. The 857933-349-R-J2-PDC line was cultured in 6C/Colon 1B media, which includes advanced DMEM/F-12 (Thermo Fisher Scientific, cat. 12634028), 10 mM HEPES (Thermo Fisher Scientific, cat. 15630080), 1X GlutaMAX supplement (Thermo Fisher Scientific, cat. 35050061), 0.1 mg/mL primocin (InvivoGen, cat. ant-pm-2), 10% defined fetal bovine serum, heat inactivated (HyClone Laboratories Inc., cat. SH30070.03HI), 50% L-WRN conditioned media (ATCC, cat. CRL-3276), 1.25 mM N-Acetyl-L-cysteine (Sigma-Aldrich, cat. A9165), 10 mM nicotinamide (Sigma-Aldrich, cat. N0636), 1X B-27 supplement (Thermo Fisher Scientific, cat. 17504044), 1X N-2 supplement (Thermo Fisher Scientific, cat. 17502048), 10 microM Y-27632 dihydrochloride (Tocris Bioscience, cat. 1254), and 50 ng/mL human EGF recombinant protein (Thermo Fisher Scientific, cat. PHG0311). The 485176-168-R4-J1-PDC line was cultured in Panc media, which includes all 6C/Colon 1B media components plus 100 ng/mL human FGF-10 (Thermo Fisher Scientific, cat. 100-26), 500 nM SB-431542 (Selleckchem, cat. S1067), and gastrin (Tocris, cat. 3006).
[…]
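Further: spheroids exposed to compounds for one week before readout.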
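Wherever viability, T/C is given: percent viability relative to vehicle DMSO wells taken as 100%.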

Row | IC50 (curve of compound) | IC50 (compound alone, run of 02/26/2024) [nM] | SMILES | viability, T/C (compound 0.0316 µM) | viability, T/C (compound 0.1 µM) | viability, T/C (compound 0.316 µM) | viability, T/C (compound 1 µM) | viability, T/C (compound 3.16 µM) | viability, T/C (compound 10 µM) | viability, T/C (compound 0.000999 µM) | viability, T/C (compound 0.00316 µM) | viability, T/C (compound 0.00999 µM) | viability, T/C (compound 0.0999 µM)
1 | > 10000 nM | – | C#Cc1c(F)ccc2cc(O)cc(-c3ncc4c(N5CC6CCC(C5)N6)nc(OCC56CCCN5CC(F)C6)nc4c3F)c12 (centres undefined) | 94.6% and 101% and 111% | 93.3% and 94.7% and 99.7% | 93.6% and 91.5% and 99.1% | 69.2% and 83.1% and 96.8% | 75.5% and 70.2% and 97.1% | 70% and 66.5% and 97.9% | – | – | – | –
2 | > 10000 nM | – | C=CC(=O)N1CCN(c2nc(=O)n(-c3c(C)ccnc3C(C)C)c3nc(-c4c(O)cccc4F)c(F)cc23)C(C)C1 (centres undefined) | 106% and 112% and 111% | 94.1% and 102% and 90.6% | 100% and 107% and 103% | 102% and 110% and 106% | 107% (2×) and 108% | 90.5% and 111% and 101% | – | – | – | –
3 | 1640 nM and 1800 nM and 945 nM | – | C=CCn1c(=O)c2cnc(Nc3ccc(N4CCN(C)CC4)cc3)nc2n1-c1cccc(C(C)(C)O)n1 | 102% and 105% and 106% | 99.4% and 100% and 96.3% | 95.1% and 97.1% and 97.4% | 66.4% and 72.8% and 47.7% | 26.8% and 27.4% and 8.15% | 28.5% and 27% and 10.6% | – | – | – | –
4 | 34.2 nM and 68.2 nM and < 31.6 nM | – | CC(=O)O[C@H]1C(=O)[C@@]2(C)[C@H]([C@H](OC(=O)c3ccccc3)[C@]3(O)C[C@H](OC(=O)[C@H](O)[C@@H](NC(=O)c4ccccc4)c4ccccc4)C(C)=C1C3(C)C)[C@]1(OC(C)=O)CO[C@@H]1C[C@@H]2O | 52.5% and 76.2% and 43.1% | 16.1% (2×) and 36.9% | 11.9% and 21.4% and 7.97% | 13.3% and 23.7% and 9.54% | 12% and 23.8% and 9% | 13.6% and 25.8% and 10.8% | – | – | – | –
5 | 734 nM and 803 nM and 519 nM | – | CC(C)(O)C1CCC(Nc2ccc3ncc(-c4cccc(C(F)(F)F)c4)n3n2)CC1 (centres undefined) | 106% and 103% and 98.1% | 94% and 102% and 87.3% | 89% and 96.2% and 80.1% | 36.2% and 39.3% and 10.5% | 2.72% and 3.1% and 0.35% | 2.99% and 3.23% and 0.57% | – | – | – | –
6 | > 10000 nM | – | CC(C)n1c(=O)n(C)c2cnc3cc(F)c(-c4ccc(OCCCN5CCCCC5)nc4)cc3c21 | 105% and 109% (2×) | 101% and 106% and 90.6% | 104% and 109% and 108% | 98.6% and 103% and 99.5% | 104% and 110% and 107% | 78.2% and 107% and 72.4% | – | – | – | –
7 | – | – | CC1COCCN1c1cc(-c2ccnn2C)c2ccnc(-c3ccn[nH]3)c2n1 (centres undefined) | 75.8% and 95.2% and 75.5% | 52.4% and 84.3% and 52.1% | 50.2% and 75.8% and 40.3% | 46.9% and 63.2% and 44.1% | 55.8% and 55.3% and 45.5% | 51.8% and 61.9% and 43.6% | – | – | – | –
8 | – | – | CC1COCCN1c1cc(C2(O)CC3CCC(C2)O3)c2cnn(-c3ccn[nH]3)c2n1 (centres undefined) | 68.6% and 76.9% and 98% | 52% and 53% and 88.7% | 43.7% and 48.3% and 77.2% | 38.1% and 42% and 63.5% | 46.3% and 45.1% and 55.5% | 37.5% and 47.3% and 50.1% | – | – | – | –
9 | 7380 nM and > 10000 nM and 2570 nM | – | CC1COCCN1c1cc(C2(S(C)(=N)=O)CC2)nc(-c2ccnc3[nH]ccc23)n1 (centres undefined) | 107% and 106% and 99% | 96.8% and 99.1% and 94.2% | 96.2% and 105% and 84.3% | 68.3% and 92.9% and 61.6% | 57.1% and 82.2% and 48.8% | 47% and 65.2% and 39.2% | – | – | – | –
10 | 5230 nM and 5490 nM and 5700 nM | – | CCCS(=O)(=O)Nc1ccc(F)c(C(=O)c2c[nH]c3ncc(-c4ccc(Cl)cc4)cc23)c1F | 104% and 111% and 98.5% | 97.2% and 102% and 92% | 97.4% and 105% and 95.5% | 102% and 101% and 96.5% | 84.9% and 90.6% and 95.8% | 4.82% and 5.71% and 6.52% | – | – | – | –
11 | 115 nM and 282 nM and 138 nM | – | CC[C@@]1(O)C(=O)OCc2c1cc1n(c2=O)Cc2cc3c(CN(C)C)c(O)ccc3nc2-1 | 70.4% and 96.6% and 71.6% | – | 40.8% and 48.1% and 34.1% | – | – | – | 98.7% and 105% and 103% | 82.7% and 104% and 89% | 92.6% and 97.9% and 98.2% | 52.3% and 67.8% and 57.9%
12 | 5.62 nM and 16 nM and 4.84 nM | – | CCc1c2c(nc3ccc(O)cc13)-c1cc3c(c(=O)n1C2)COC(=O)[C@]3(O)CC | 28% and 35.3% and 21.5% | – | 11.9% and 6.62% and 10.2% | – | – | – | 85.5% and 93.5% and 77.5% | 48.9% and 84.5% and 50.1% | 50% and 57.4% and 48.4% | 15.3% and 20.7% and 13%
13 | – | > 10000 | CN(C)c1ccc(Nc2c3ccc(NC(=O)CCN4CCCC4)cc3nc3cc(NC(=O)CCN4CCCC4)ccc23)cc1 | 104% [middle of 12 runs] | 105% [middle of 12 runs] | 106% [middle of 12 runs] | 103% [middle of 12 runs] | 88.4% [middle of 12 runs] | 74.7% [middle of 12 runs] | – | – | – | –
